Molecular target: T1, AcCPR (Aphis citricidus, UniProt A0A346QRP0)
T1 construct: full-length ORF in pFastBac HT A, 6xHis-tagged, Sf9 cell extract (soluble supernatant; called microsomes in results)
T1 sequence (A0A346QRP0 1-681): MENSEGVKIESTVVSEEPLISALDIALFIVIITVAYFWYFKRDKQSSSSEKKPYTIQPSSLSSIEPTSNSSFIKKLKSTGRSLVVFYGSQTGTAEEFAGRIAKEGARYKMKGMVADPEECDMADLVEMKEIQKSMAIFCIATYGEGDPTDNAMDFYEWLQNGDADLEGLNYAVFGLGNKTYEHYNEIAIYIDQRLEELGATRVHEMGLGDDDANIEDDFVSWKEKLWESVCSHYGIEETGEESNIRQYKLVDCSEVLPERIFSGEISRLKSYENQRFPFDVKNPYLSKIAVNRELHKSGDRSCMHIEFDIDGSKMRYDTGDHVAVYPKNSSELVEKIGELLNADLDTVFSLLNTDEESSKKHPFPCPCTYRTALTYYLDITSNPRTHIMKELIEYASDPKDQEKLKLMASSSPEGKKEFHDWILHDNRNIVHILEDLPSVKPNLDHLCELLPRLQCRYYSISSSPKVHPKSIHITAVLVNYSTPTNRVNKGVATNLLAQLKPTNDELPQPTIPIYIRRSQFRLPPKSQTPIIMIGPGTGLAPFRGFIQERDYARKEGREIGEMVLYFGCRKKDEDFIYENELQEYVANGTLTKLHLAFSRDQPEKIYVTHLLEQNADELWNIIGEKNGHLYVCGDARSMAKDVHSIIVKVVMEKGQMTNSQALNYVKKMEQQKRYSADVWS
Test: NADPH-cytochrome c reduction, absorbance at […] nm, Sf9 cell extract
Format: biochemical
Details: cytochrome c as electron acceptor, 0.3 M potassium phosphate pH 7.7; NADPH 2 uL of 10 mM stock in 200 uL

## NC(=O)C1=CN([C@@H]2O[C@H](COP(=O)(O)OP(=O)(O)OC[C@H]3O[C@@H](n4cnc5c(N)ncnc54)[C@H](OP(=O)(O)O)[C@@H]3O)[C@@H](O)[C@H]2O)C=CC1 [NADPH]
  NADPH-cytochrome c reduction, absorbance at 550 nm, Sf9 cell extract: Heterologously expressed AcCPR activity was determined by spectrophotometric measurement of the activity of NADPH-cytochrome-c reduction

Reference: PMC6104490, “NADPH–Cytochrome P450 Reductase Mediates the Resistance of Aphis (Toxoptera) citricidus (Kirkaldy) to Abamectin” (Frontiers in Physiology, 2018)
